According to publication PMC10177727 (Clinical Drug Investigation, 2023):

Experiments:
CYP3A = CYP3A (Homo sapiens, UniProt P08684); settings: pre-clinical in vitro findings
[1] = ensitrelvir; cited from earlier work
[2] = Safety and tolerability: treatment-emergent adverse events; type: in vivo, healthy Japanese adult participants
[3] = Ensitrelvir 375/125 mg + midazolam, N = 14
[4] = Ensitrelvir 375/125 mg + midazolam, N = 14, listed as ensitrelvir
[5] = Ensitrelvir 750/250 mg + dexamethasone, N = 14
[6] = Ensitrelvir 750/250 mg + dexamethasone, N = 14, listed as ensitrelvir
[7] = Ensitrelvir 750/250 mg + prednisolone, N = 14

Chain of CYP3A (P08684 2-503): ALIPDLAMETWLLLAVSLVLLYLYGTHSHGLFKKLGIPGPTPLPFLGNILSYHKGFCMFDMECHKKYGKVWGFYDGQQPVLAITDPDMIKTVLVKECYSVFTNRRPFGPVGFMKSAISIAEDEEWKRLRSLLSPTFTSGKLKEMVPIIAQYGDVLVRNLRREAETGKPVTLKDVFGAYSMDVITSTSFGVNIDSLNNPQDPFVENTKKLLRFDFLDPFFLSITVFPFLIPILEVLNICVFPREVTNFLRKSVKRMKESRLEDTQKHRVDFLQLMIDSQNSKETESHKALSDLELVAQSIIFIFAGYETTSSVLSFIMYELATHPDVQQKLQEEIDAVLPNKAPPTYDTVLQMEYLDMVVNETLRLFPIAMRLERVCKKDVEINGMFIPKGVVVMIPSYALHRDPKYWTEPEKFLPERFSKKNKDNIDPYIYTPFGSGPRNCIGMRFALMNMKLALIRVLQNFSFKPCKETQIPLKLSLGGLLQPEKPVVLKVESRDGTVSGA

## Cn1cnc(Cn2c(=O)[nH]/c(=N\c3cc4cn(C)nc4cc3Cl)n(Cc3cc(F)c(F)cc3F)c2=O)n1 [Ensitrelvir, Ensitrelvir fumaric acid]
CYP3A
  reversible inhibitory effect on CYP3A4: no reversible inhibitory effect
  time-dependent inhibition of CYP3A: time-dependent NADPH-mediated inhibition
[1]
  t1/2,z: 42.2 to 48.1 h
[2]; [3]
  Arthropod sting, Events: 1
  Arthropod sting, N (%): 1 (7.1)
  Blood triglycerides increased, Events: 1
  Blood triglycerides increased, N (%): 1 (7.1)
  Blood triglycerides increased, events Related to ensitrelvir: 1
  Diarrhea, Events: 1
  Diarrhea, N (%): 1 (7.1)
  Gastrointestinal disorders, Events: 1
  Gastrointestinal disorders, N (%): 1 (7.1)
  High-density lipoprotein decreased, Events: 8
  High-density lipoprotein decreased, N (%): 8 (57.1)
  High-density lipoprotein decreased, events Related to ensitrelvir: 8
  Injury, poisoning and procedural complications, Events: 1
  Injury, poisoning and procedural complications, N (%): 1 (7.1)
  Investigations, Events: 9
  Investigations, N (%): 8 (57.1)
  Investigations, events Related to ensitrelvir: 9
  Nervous system disorders, Events: 10
  Nervous system disorders, N (%): 9 (64.3)
  Nervous system disorders, events Related to ensitrelvir: 2
  Participants with any TEAE, Events: 21
  Participants with any TEAE, N (%): 11 (78.6)
  Participants with any TEAE, events Related to ensitrelvir: 11
  Somnolence, Events: 10
  Somnolence, N (%): 9 (64.3)
  Somnolence, events Related to ensitrelvir: 2
[2]; [4]
  Arthropod sting, N (%): 1
  Blood triglycerides increased, N (%): 1
  Diarrhea, N (%): 1
  High-density lipoprotein decreased, N (%): 8
  Participants with any TEAE, N (%): 11
  Somnolence, N (%): 9
[2]; [5]
  Atrioventricular block, Events: 1
  Atrioventricular block, N (%): 1 (7.1)
  Blood triglycerides increased, Events: 4
  Blood triglycerides increased, N (%): 4 (28.6)
  Blood triglycerides increased, events Related to ensitrelvir: 3
  Cardiac disorders, Events: 1
  Cardiac disorders, N (%): 1 (7.1)
  Dizziness, Events: 1
  Dizziness, N (%): 1 (7.1)
  Dizziness, events Related to ensitrelvir: 1
  Headache, Events: 1
  Headache, N (%): 1 (7.1)
  Headache, events Related to ensitrelvir: 1
  High-density lipoprotein decreased, Events: 5
  High-density lipoprotein decreased, N (%): 5 (35.7)
  High-density lipoprotein decreased, events Related to ensitrelvir: 5
  Investigations, Events: 9
  Investigations, N (%): 7 (50.0)
  Investigations, events Related to ensitrelvir: 8
  Nervous system disorders, Events: 2
  Nervous system disorders, N (%): 1 (7.1)
  Nervous system disorders, events Related to ensitrelvir: 2
  Papule, Events: 1
  Papule, N (%): 1 (7.1)
  Papule, events Related to ensitrelvir: 1
  Participants with any TEAE, Events: 13
  Participants with any TEAE, N (%): 9 (64.3)
  Participants with any TEAE, events Related to ensitrelvir: 11
  Skin and subcutaneous tissue disorders, Events: 1
  Skin and subcutaneous tissue disorders, N (%): 1 (7.1)
  Skin and subcutaneous tissue disorders, events Related to ensitrelvir: 1
[2]; [6]
  Atrioventricular block, N (%): 1
  Blood triglycerides increased, N (%): 4
  Dizziness, N (%): 1
  Headache, N (%): 1
  Papule, N (%): 1
  Participants with any TEAE, N (%): 9
[2]; [7]
  Atrioventricular block, Events: 0
  Atrioventricular block, N (%): 0
  Atrioventricular block, events Related to ensitrelvir: 0
  Blood triglycerides increased, Events: 0
  Blood triglycerides increased, N (%): 0
  Blood triglycerides increased, events Related to ensitrelvir: 0
  Cardiac disorders, Events: 0
  Cardiac disorders, N (%): 0
  Cardiac disorders, events Related to ensitrelvir: 0
  Dizziness, Events: 0
  Dizziness, N (%): 0
  Dizziness, events Related to ensitrelvir: 0
  Headache, Events: 0
  Headache, N (%): 0
  Headache, events Related to ensitrelvir: 0
  High-density lipoprotein decreased, Events: 14
  High-density lipoprotein decreased, N (%): 14 (100.0)
  High-density lipoprotein decreased, events Related to ensitrelvir: 14
  Investigations, Events: 14
  Investigations, N (%): 14 (100.0)
  Investigations, events Related to ensitrelvir: 14
  Nervous system disorders, Events: 0
  Nervous system disorders, N (%): 0
  Nervous system disorders, events Related to ensitrelvir: 0
  Papule, Events: 0
  Papule, N (%): 0
  Papule, events Related to ensitrelvir: 0
  Participants with any TEAE, Events: 14
  Participants with any TEAE, N (%): 14 (100.0)
  Participants with any TEAE, events Related to ensitrelvir: 14
  Skin and subcutaneous tissue disorders, Events: 0
  Skin and subcutaneous tissue disorders, N (%): 0
  Skin and subcutaneous tissue disorders, events Related to ensitrelvir: 0
[2]; Ensitrelvir 750/250 mg + prednisolone, N = 14, listed as ensitrelvir
  Participants with any TEAE, N (%): 14
[2]; all cohorts
  serious TEAEs: no serious TEAEs
[2]; multiple-dose ensitrelvir with CYP3A substrates
  tolerability: well tolerated
